Laboratory results published in patent US20180028478A1, “ANTIVIRAL COMPOSITIONS DIRECTED AGAINST THE NUCLEOPROTEIN OF INFLUENZA VIRUSES” (priority 2011, published 2018).

Tests used:
NP R152A = NP R152A (Influenza A virus, UniProt P15682, R152A); type: binding, type-A Influenza virus
NP WT = NP WT (Influenza A virus, UniProt P15682, A237T/A472T/G34D/M105R/P283S); type: binding, type-A Influenza virus (H1N1 A/WSN/1933)
NP R361A [1] = target: T1, NP R361A (Influenza A virus, UniProt P15682, R361A)
NP R416A mutant = NP R416A mutant (Influenza A virus, UniProt P15682, R416A)
NP Y148A = NP Y148A (Influenza A virus, UniProt P15682, Y148A)
[2] = target: nucleoprotein of SEQ ID NO: 2 (Influenza A virus, UniProt P15682, A237T/A472T/G34D/M105R/P283S)
NP = NP (Influenza A virus, UniProt P15682, A237T/A472T/G34D/M105R/P283S)
NP R361A [3] = target: T1, NP R361A; remark: listed apart in the source

Compound	effect of R152A mutation on affinity (NP R152A)	competition with the association of RNA to NP (signal of NP-RNA complex) (NP WT)	competition with the RNA / attachment (NP R361A [1])	attachment to R416A mutant (NP R416A mutant)	competition with the RNA (NP Y148A)	beacon fluorescence in the presence of compound [2]	direct attachment to surface-bound protein (NP)	direct attachment to surface-bound protein (NP R361A [3])
COc1ccc2cc(-c3c(C(=O)O)cccc3C(=O)O)ccc2c1 [Naproxen c0]	reduces the affinity	–	–	–	–	–	–	–
COc1ccc2cc(C(C)C(=O)O)ccc2c1 (centres unmarked) [Naproxen]	no effect	signal decrease	does not compete with the RNA any longer	does not fix	does not compete with the RNA any longer	fluorescence decreases	direct attachment	but not to R361A
COc1ccc2cc(C(CC(=O)O)CC(=O)O)ccc2c1 [Naproxen A]	reduces the affinity	biphasic effect	–	–	–	–	–	–
